Assays:
[1] = Distribution in rat body (radioactivity in the brain); assay type: in vivo, Wistar male rats; details: caudal vein
Method: Wistar male rats (purchased from Japan SLC, Inc.) were conditioned for seven days, maintaining water and chow (commercial solid chow: F-2, product of Funabashi Farm) ad libitum, and the non-fasting rats were employed in the experiment (8-week-old at experiment).
Each of compound 23, compound 24, and [^125I]-IMPY was dissolved in a solution containing 40 mM ascorbic acid and 0.1% Tween80, to thereby adjust the concentration to 100 μCi/200 μL. Each sample was administered to each rat through the caudal vein under non-anesthetization. […] The brain was cut into the left and right parts, and each part was weighed. The right brain was placed in a vial, and radioactivity was measured by means of a gamma counter. The radioactivity relative to the administration amount was calculated. Specifically, radioactivity of the tissue and that divided by the tissue weight were calculated as % I.D. and % I.D./g-tissue weight, respectively.

[2] = Analysis of radioactive substance in the rat brain after administration (TLC); assay type: in vivo; details: rat brain homogenate 2 to 120 minutes after administration (FIG. 5)
Method: Compounds which had been incorporated into the rat brain were investigated. The left part of the rat brain, obtained in the above experiment (distribution in the rat body) was homogenized by means of a Potter-type homogenizer with 40-mmol/L ascorbic acid-containing PBS (4-fold amount by mass). Acetonitrile (4-fold volume with respect to homogenate) was added to the homogenate, and the mixture was filtered, to thereby remove protein. The acetonitrile layer was developed by means of a reverse phase TLC (Whatman KC18F). The TLC was brought into contact with an imaging plate, and radioactivity was detected by means of BAS-1800 (product of Fuji Film Co., Ltd.). Each of the brain homogenate obtained 2, 5, 40, 60, and 120 minutes after administration was treated with acetonitrile so as to remove protein, and extracted radioactive substances were analyzed through thin-layer chromatography (KC18F, Whatman).

[3] = In vitro metabolism rate by use of liver microsomes, mouse; assay type: in vitro ADME, Male CD1 mouse
Method: (§1) Liver microsomes (Pooled human Liver Microsomes, Male CD1 mouse, Male Wistar Rat), which is a commercial product of In Vitro Technologies, were employed.
(§2) Each of compound 23, compound 24, and [^125I]-IMPY was dissolved in Milli Q water, to thereby adjust the concentration to 11 μCi/mL (5 nmol/L).
(§3) To a mixture of 100 mM glucose 6-phosphate and […] NADPH solution, an equal volume of […] magnesium chloride was added. Glucose 6-phosphate dehydrogenase was employed at a final concentration of 10 unit/mL. These components were reconstituted upon use.
(§4) Method: To each of the glass test tubes, […] EDTA/0.33M potassium phosphate buffer (150 μL), Milli Q water (200 μL), 0.005 or 0.5 mg protein/mL microsome suspension (50 μL), and a test substance solution (50 μL) were added. The mixture was preliminarily incubated at 37° C. for two minutes. The above-prepared NADPH-generating system (50 μL) was added, to thereby initiate reaction. At an arbitrary point of time, an equal volume of acetonitrile was added, to thereby terminate the reaction. The reaction mixture (50 μL) was sampled into a glass tube for determining the metabolism amount, and saturated ascorbic acid ethanol solution (25 μL) was added thereto. The sample was developed by means of a reverse phase TLC (Whatman KC18F) with 80% methanol. The TLC was brought into contact with an imaging plate, and radioactivity was detected by means of BAS-1800 (product of Fuji Film Co., Ltd.). The metabolism rate was calculated through analysis by means of GraphPad Prism Ver. 4.00 (GraphPad Software, Inc.).

[4] = In vitro metabolism rate by use of liver microsomes, rat; assay type: in vitro ADME, Male Wistar Rat
Method: as §1, §2, §3, §4

[5] = In vitro metabolism rate by use of liver microsomes, human; assay type: in vitro ADME
Method: as §1, §2, §3, §4

**Q.** For `CN(C)c1ccc(-c2cn3cc([125I])ccc3n2)cc1` [^125I-IMPY, reference compound], which “Radioactivity in the rat brain Mean ± SD” value ([1]; 2 min after administration) is on record?
**A.** 1.110 ± 0.027 % I.D./g

**Q.** And the “Radioactivity in the rat brain Mean ± SD” value ([1]; 5 min after administration)?
**A.** 0.713 ± 0.098 % I.D./g

**Q.** And the “Radioactivity in the rat brain Mean ± SD” value ([1]; 15 min after administration)?
**A.** 0.337 ± 0.019 % I.D./g

**Q.** And the “Radioactivity in the rat brain Mean ± SD” value ([1]; 30 min after administration)?
**A.** 0.144 ± 0.021 % I.D./g

**Q.** What about the “Radioactivity in the rat brain Mean ± SD” value ([1]; 60 min after administration) of the same compound?
**A.** 0.065 ± 0.002 % I.D./g

**Q.** What about the “Radioactivity in the rat brain Mean ± SD” value ([1]; 120 min after administration) of the same compound?
**A.** 0.027 ± 0.001 % I.D./g

**Q.** And the “Metabolites in the brain (TLC of extracted radioactive substance)” value [2]?
**A.** provided a plurality of metabolites in the brain

**Q.** What about the “Rate of metabolism by liver microsomes” value [3] of the same compound?
**A.** 0.911 ± 0.331 pmol/min/mg protein

**Q.** What about the “Rate of metabolism by liver microsomes” value [4] of the same compound?
**A.** 2.164 ± 0.647 pmol/min/mg protein

**Q.** What about the “Rate of metabolism by liver microsomes” value [5] of the same compound?
**A.** 0.510 ± 0.137 pmol/min/mg protein

From patent US8022075B2, “Diagnostic and remedy for disease caused by amyloid aggregation and/or deposition” (Fujifilm Ri Pharma Co., Ltd., priority 2005, dated 2011)
